The source of these data is patent US20220273011A1, “GINGEROL COMPOUNDS AND THEIR USE AS FLAVOR MODIFIERS” (Firmenich SA, priority 2019, published 2022).

Holding throughout (assay type): in vivo
Assay [1] deals with salty taste and/or umami taste. As to the kind of experiment: Sensory tests of the compounds of formula (I) and (III) in reference solutions (NaCl, MSG, KCl), with or without nose clip. The note with it: for enhancing effect for a salty or umami taste: references: 0.25% NaCl, 0.05% MSG, 0.25% KCl solution, FIGS. 1-6. The protocol:
Sensory tests of the compounds of the present application were conducted. The compounds of formula (I) and (III) of the present application were tasted in sensory tests for their ability to enhance salty taste and/or umami taste in food products. The sensory tests were evaluated in four characters as saltiness, umami taste, saltiness in the presence of potassium chloride, and potassium chloride taste. The food products were evaluated with or without these compounds relevant to references (as indicated “With NC-Ref”, or “Without NC-Ref” in figures). The reference for saltiness was a 0.25% NaCl solution, the reference for umami was a 0.05% MSG solution, and the salty/bitter reference was a 0.25% KCl solution. The data was analyzed for statistical significances (indicated as * in the figures), such as levels of significance or graph of differences between means.
FIGS. 1-6 show the results of sensory tests for enhancing salty taste and/or umami taste using the compounds of formula (I) and (III) of the present application.

In assay [2] the test system is salty taste and/or umami taste. Put plainly: Sensory tests in chicken bouillon. The note with it: for taste description: 10 ppm in chicken bouillon (0.7% salt, 0.04% MSG). As for the experimental part: [10]-gingerdiol and [10]-gingerdioldiacetate were tested to evaluate their ability to enhance salty taste and/or umami taste in chicken bouillon (GVA-000589, 0.7% salt, 0.04% MSG, no pepper, with 0.08% Chicken Flexarome 880449 FBS42).
The sensory tests were evaluated for salt intensity, umami intensity, and liking intensity. The experiments were conducted in four designs, i.e. UNF (reference), Ericamide ((E)-3-(3,4-dimethoxyphenyl)-N-(4-methoxyphenethyl)acrylamide, FEMA 4877) at 10 ppm, [10]-gingerdiol at 10 ppm, and [10]-gingerdioldiacetate at 10 ppm.

In assay [3] the test system is salty taste and/or umami taste. Put plainly: Sensory tests in basic beef noodle seasoning. The note with it: 10 ppm in salt water, in comparison to 0.3% salt; FIG. 8. As for the experimental part:
[6]-gingerdiol, [8]-gingerdiol, and [10]-gingerdioldiacetate were tested to evaluate their abilities to enhance salty taste and/or umami taste in basic beef noodle seasoning (GVA-003129, no salt, no MSG; salt (−25%) 0.525% RTC, MSG 0.25% RTC; Corned Beef 589879 CB at 0.2% RTC).
The sensory tests were evaluated for salt intensity, umami intensity, bitter intensity and liking intensity. The experiments were conducts in four designs, i.e. salt at 0.3%, [6]-gingerdiol at 10 ppm in salt water, [8]-gingerdiol at 10 ppm in salt water, and [10]-gingerdioldiacetate at 10 ppm in salt water.

For the molecule `CCCCCCCCC[C@H](O)C[C@H](O)CCc1ccc(O)c(OC)c1` [[10]-gingerdiol], the “enhancing effect for a salty or umami taste” value (“enhancing effect” for short) in assay [1] is reported as “enhancing effect for a salty or umami taste”. Moreover, the taste description entry in assay [2] was “less round, more salty, more acidic, chickeny balanced, coriander leaf, good and quite clean tastes”. For the same molecule, the salt intensity result in assay [2] (10 ppm in chicken bouillon, vs UNF (reference), FIG. 9) was “unexpected effects in enhancing the salt intensity”.
As to `CCCCCCCCC[C@@H](C[C@@H](CCc1ccc(O)c(OC)c1)OC(C)=O)OC(C)=O` [[10]-gingerdioldiacetate], the “enhancing effect” value in assay [1] is on record as “enhancing effect for a salty or umami taste”. In assay [3], the bitter intensity entry is “less bitter intensities”, the liking intensity result is “higher liking intensities”, the salt intensity entry is recorded as “higher salt intensity” and the umami intensity entry is on record as “higher umami intensities”. The taste description result in assay [2] was “strange, salty, solvent note, fruity, and some off tastes”.
Regarding `CCCCC[C@H](O)C[C@H](O)CCc1ccc(O)c(OC)c1` [[6]-gingerdiol], in assay [3], the bitter intensity result is recorded as “less bitter intensities”, the liking intensity result was “higher liking intensities”, the salt intensity result is “comparable salt intensities” and the umami intensity result is given as “higher umami intensities”.
For the molecule `CCCCCCC[C@@H](C[C@@H](CCc1ccc(O)c(OC)c1)OC(C)=O)OC(C)=O` [[8]-gingerdioldiacetate], the “enhancing salty taste and/or umami taste in food products” value in assay [1] (FIG. 4) was “unexpected and excellent results”. In assay [1], the “enhancing effect” value is on record as “enhancing effect for a salty or umami taste”.
As to `CCCCCCC[C@H](O)C[C@H](O)CCc1ccc(O)c(OC)c1` [[8]-gingerdiol], in assay [1], the “enhancing effect” value is reported as “enhancing effect for a salty or umami taste”. Besides, in assay [3], the bitter intensity entry is “less bitter intensities”, the liking intensity result is listed as “higher liking intensities”, the salt intensity result is given as “comparable salt intensities” and the umami intensity result is “higher umami intensities”.
Take `COc1ccc(CCNC(=O)/C=C/c2ccc(OC)c(OC)c2)cc1` [Ericamide, (E)-3-(3,4-dimethoxyphenyl)-N-(4-methoxyphenethyl)acrylamide, reference compound]: the taste description result in assay [2] was “chickeny, balanced, good mouthfeel and salty tastes”.
